Assays:
activated mouse eggs = settings: 10 μM, 10 min at 1.5 hpa
mouse eggs [1] = experiment: Time-lapse imaging of zinc sparks and calcium transients in parthenogenetically activated eggs; type: cell-based
Description: Time-lapse imaging of parthenogenetically activated eggs. Eggs were first incubated in 10 μM Calcium Green-1 AM (Invitrogen) and 0.04% (w/v) Pluronic F-127 (Invitrogen) for either 30 min (mouse) or 60 min (non-human primate) at 37° C. Mouse eggs were washed in calcium-free KSOM (Millipore) and transferred to a 50 μl drop containing 10 mM SrCl2 (Sigma-Aldrich) and 50 μM FluoZin-3 (Invitrogen) on a glass-bottom dish (Bioptechs Inc.). Non-human primate eggs were transferred to one end of a long and shallow drop (20 μl) of calcium-free KSOM (Millipore) containing 50 μM FluoZin-3 (Invitrogen) on a glass-bottom dish (Bioptechs Inc.), covered with oil for embryo culture (Irvine Scientific, Santa Ana, Calif.). Ionomycin was perfused in at the opposite end to a final concentration of 20 μM. In both cases, image acquisition began immediately and occurred every 4 s for a total of 1-3 hours (mouse) or 15 min (non-human primate), unless noted otherwise. All images were acquired on a TCS SP5 confocal microscope (Leica Microsystems) equipped with a stage top incubator (Tokai Hit), 20× objective, and an Ar (488 nm) laser line.
Additional experiments were consistent with this determination. […] Second, zinc sparks were absent in eggs treated with the membrane permeable acetoxymethyl ester (AM) derivative of 1,2-bis(o-aminophenoxy)ethane-N,N,N′,N′-tetraacetic acid (BAPTA).
The polarization of the zinc-enriched vesicles mirrors that of the cortical granules (CG), which are exocytic vesicles that participate in the cortical reaction, which involves the hardening of the zona pellucida to establish a block to polyspermy at fertilization (Ducibella. (1996) Hum Reprod Update 2, 29-42.; herein incorporated by reference in its entirety). […] In most cases, subsequent sparks were inhibited (SEE FIG. 9). Experiments conducted during development of embodiments of the present invention indicate that zinc-containing vesicles are pre-fused with the egg membrane, allowing the first spark to occur even in the presence of CytoB. This type of phenomenon has been described for cortical granules in the sea urchin egg, where one subset of CGs are in a hemifused state prior to activation21.

[2] = Gee et al. 2002; cited from earlier work
[3] = pM reflects the log of the free ion concentration; cited from earlier work
mouse eggs [4] = experiment: TPEN treatment and spindle imaging of mouse eggs; type: cell-based; settings: 10 μM, 8 hrs of culture
Description: FIGS. 12a-e show perturbation of intracellular zinc availability causes activation of the egg. Following 8 hours of culture, control eggs maintain a metaphase II spindle (a, sp) with individual chromosomes aligned at the metaphase plate (b). In contrast, eggs exposed to 10 μM TPEN for the same period artificially activate as indicated by the formation of an intact pronucleus (c, pn) with decondensed chromatin surrounding a nucleolus (d).
TPEN treatment and spindle imaging of mouse eggs. Superovulated eggs were collected and transferred to KSOM medium (Millipore) with or without 10 μM TPEN and cultured up to 8 hrs at 37° C. in an atmosphere of 5% CO2 in air. […] Eggs were fixed and permeabilized for 30 min at 37° C. in a solution containing 2% formaldehyde, 2% Triton X-100, 100 mM PIPES, 5 mM MgCl2, and 2.4 mM EGTA. Eggs were then washed and blocked for 1-3 hrs in 1× PBS containing 0.1 M glycine, 3 mg/mL BSA, 0.01% Tween-20, and 0.01% sodium azide followed by incubation with […] (1:100, Sigma) in blocking buffer for 1 hr at 37° C. Eggs were washed again in blocking buffer, incubated in Alexa Fluor 488-conjugated goat anti-mouse IgG (Invitrogen) and rhodamine-phalloidin conjugate (Invitrogen) at 37° C. for 1 hr, washed three additional times, and mounted on microscopy slides with coverslips in Vectashield with DAPI. […]

[5] = treated prior to strontium chloride activation

Which results are given for zinc pyrithione [ZnPT]?
eggs lacking a pronucleus with aligned chromosomes (activated mouse eggs): eighty-four; eggs that formed a pronucleus (activated mouse eggs; scored 6-8 hpa): seventeen

With `CC(=O)OCOC(=O)CN(CC(=O)OCOC(C)=O)c1ccccc1OCCOc1ccccc1N(CC(=O)OCOC(C)=O)CC(=O)OCOC(C)=O` [BAPTA AM] as the compound, how does the “parthenogenetic activation on long-term exposure” value (mouse eggs [1]; 10 μM) read?
The value was “did not parthenogenetically activate eggs”.

And the “calcium transients and zinc sparks” value (mouse eggs [1]; extended culture in strontium chloride)?
Its value is “both calcium transients and zinc sparks were absent”.

And the “second polar body extrusion and pronucleus formation” value (mouse eggs [1]; strontium chloride activation)?
Its value is “did not extrude a second polar body or form a pronucleus”.

For `COc1ccc(N(CC(=O)O)CC(=O)O)c(OCCOc2cc(-c3c4cc(F)c(=O)cc-4oc4cc(O)c(F)cc34)ccc2NCC(=O)O)c1` [FluoZin-3], which “fluorescence turn-on for Zn” value [2] is on record?
Its value is 80 fold.

Which pM value [3] does the source give for `CCOC(=O)COc1cc(NS(=O)(=O)c2ccc(C)cc2)c2nc(C)ccc2c1` [zinquin ethyl ester] here?
The pM value was 9.3.

Which “egg activation (pronucleus-like structure)” value (mouse eggs [4]) does the source give for `c1ccc(CN(CCN(Cc2ccccn2)Cc2ccccn2)Cc2ccccn2)nc1` [TPEN] here?
Its value is “had a pronucleus-like structure at significantly higher rates”.

What about the “zinc sparks in zinc-insufficient eggs” value (mouse eggs [1]; oocytes treated during in vitro maturation, then activated) of the same compound?
The value was “did not undergo zinc sparks”.

For carbonic anhydrase, which pM value [3] is on record?
Its pM value is 12.4.

With `C=C1[C@@H](C)[C@H]2[C@H](Cc3ccccc3)NC(=O)[C@]23OC(=O)/C=C/[C@H](O)CCC[C@@H](C)C/C=C/[C@H]3[C@@H]1O` [CytoB, cytochalasin B] as the compound, how does the “calcium oscillations upon activation” value (mouse eggs [1]; [5]) read?
The value was “normal calcium oscillations”.

What about the “zinc sparks upon activation” value (mouse eggs [1]; [5]) of the same compound?
The value was “only exhibit a single zinc spark”.
